From ChEMBL document CHEMBL4837181 (Eur J Med Chem, 2020) come the findings set out here.

As a reminder, the Tmax is the time at which the peak concentration occurs. A word on the solubility: it is the concentration that dissolves in the medium under given conditions. A word on the CL/F: it is clearance divided by bioavailability, as obtained after extravascular dosing. One may read the AUC(0-t) as the area under the concentration-time curve up to a stated or last time point. In general, half-life refers to the time needed for the level to fall by half in the phase considered. By Cmax is commonly meant the maximum level reached in the sampled fluid or tissue.

The nature of series [1]: Drug metabolism in cynomolgus monkey assessed as indoximod formation of by measuring indoximod Tmax at 15 mg/kg, iv administered as single dose. It is filed as ADME, organism-based, Macaca fascicularis. Conditions: in vivo.
Series [2] is described as follows: Solubility of the compound in FaSSIF. In kind it is physicochemical.
The nature of series [3]: Drug metabolism in Sprague-Dawley rat hepatocytes assessed as unmetabolized compound at 10 uM incubated for 120 mins by UPLC-QTOF-PDA analysis. It is filed as ADME, cell-based, Hepatocyte. As to conditions: read-out: Drug metabolism.
Series [4] concerns the target T1, Cytochrome P450 1A2 (Homo sapiens, UniProt P05177).
T1 sequence (P05177 whole entry): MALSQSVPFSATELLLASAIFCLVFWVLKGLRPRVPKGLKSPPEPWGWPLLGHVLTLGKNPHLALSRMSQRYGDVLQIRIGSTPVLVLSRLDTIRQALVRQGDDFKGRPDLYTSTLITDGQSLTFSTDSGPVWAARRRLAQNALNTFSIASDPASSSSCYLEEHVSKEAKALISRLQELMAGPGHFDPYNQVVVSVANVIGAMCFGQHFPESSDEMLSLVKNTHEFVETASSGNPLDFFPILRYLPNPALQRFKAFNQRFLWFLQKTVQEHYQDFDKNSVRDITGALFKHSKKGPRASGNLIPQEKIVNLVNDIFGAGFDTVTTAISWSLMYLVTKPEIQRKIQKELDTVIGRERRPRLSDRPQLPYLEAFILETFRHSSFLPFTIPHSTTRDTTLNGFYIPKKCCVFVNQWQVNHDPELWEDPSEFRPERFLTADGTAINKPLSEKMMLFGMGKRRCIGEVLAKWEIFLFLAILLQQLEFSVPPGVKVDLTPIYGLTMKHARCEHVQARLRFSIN
Description: Induction of CYP1A2 in human hepatocytes. It is filed as ADME, cell-based, Hepatocyte.

Series [5] is described as follows: Clearance in female cynomolgus monkey at 75 mg/kg, po measured on day 1. In kind it is ADME, organism-based, Macaca fascicularis. As to conditions: in vivo.
A short description of series [6]: AUC (0 to 24 hrs) in female cynomolgus monkey at 225 mg/kg, po measured on day 1. In kind it is ADME, organism-based, Macaca fascicularis. Set-up: time < 24 hr, route oral, dose 225 mg/kg. Conditions: in vivo.
A short description of series [7]: Change in AUC(infinity) in rat at 185 umol/kg, po measured upto 72 hrs by LC-MS/MS analysis. It is filed as ADME, organism-based. As to conditions: in vivo, at 185 µmol/kg.
Series [8] is described as follows: Half life in male cynomolgus monkey at 225 mg/kg, po measured on day 1. In kind it is ADME, organism-based, Macaca fascicularis. As to conditions: in vivo.
A short description of series [9]: Cmax in male cynomolgus monkey at 75 mg/kg, po measured on day 1. In kind it is ADME, organism-based, Macaca fascicularis. Also noted: route oral, dose 75 mg/kg. As to conditions: in vivo.

Turning to `CCOC(=O)[C@@H](Cc1cn(C)c2ccccc12)NC(=O)[C@@H](N)CC(C)C.Cl`, the time to peak (Tmax) in series [1] was 1 h. The solubility in [2] was 19.1 mg/mL. Further, the remaining at 2 h, 10 µM in [3] amounted to 0.4%. In addition, the Activity entry in [4] was “Not Active”.
Compound `Cn1cc(C[C@@H](N)C(=O)O)c2ccccc21` [INDOXIMOD] showed an apparent clearance (CL/F) in series [5] of 25.6 mL/min/kg. Further, in [6], the area under the curve AUC(0-t) at 24 h turned out to be 181 µM·h. The Activity in [7] is on record as 0%. In series [8], this compound had a half-life of 2.9 h. For the same compound, the Cmax in [9] worked out at 74.4 µM.
